Test results from patent EP4596574A1, “GLP-1/GCG/GIP TRIPLE-RECEPTOR AGONIST AND USE THEREOF” (Sunshine Lake Pharma Co., Ltd., priority 2022, dated 2024).
Marks after values point to notes of the source that are not given here.

Assays:
[1] = target: T1, GCGR (Homo sapiens, UniProt P47871); assay: In vitro cell activity, cAMP production in HEK293 cells expressing GCGR; type: cell-based
T1 construct: expressed in transfected cells; host or cells: HEK293 (HEK293-GCGR)
Procedure, shortened: (§1)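 cAMP output read as 665/620 nm HTRF ratio after adding cAMP-d2 plus anti-cAMP cryptate and incubating 1 h at room temperature in the dark or overnight at 4 °C. Cells: HEK293 expressing human GLP-1R or GCGR, plated from a 4×10^5 cells/mL suspension. Four-parameter fit gives EC50.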

[2] = target: T2, GLP-1R (Homo sapiens, UniProt P43220); assay: In vitro cell activity, cAMP production in HEK293 cells expressing GLP-1R; type: cell-based
T2 construct: expressed in transfected cells; host or cells: HEK293 (HEK293-GLP-1R)
Procedure, shortened: as §1

[3] = Long-term repeated administration in diet-induced obese C57BL/6 mice (DIO); type: in vivo, C57/BL6 mice
[4] = In vivo efficacy evaluation in db/db mouse model (blood glucose); design: species or system db/db mice
Procedure: Blood glucose was tested before each administration.

[5] = target: T3, GIPR (Homo sapiens, UniProt P48546); assay: In vitro cell activity, cAMP production in HEK293 cells expressing GIPR; type: cell-based
T3 construct: expressed in transfected cells; host or cells: HEK293 (HEK293-GIPR)
T3 sequence (P48546 22-466): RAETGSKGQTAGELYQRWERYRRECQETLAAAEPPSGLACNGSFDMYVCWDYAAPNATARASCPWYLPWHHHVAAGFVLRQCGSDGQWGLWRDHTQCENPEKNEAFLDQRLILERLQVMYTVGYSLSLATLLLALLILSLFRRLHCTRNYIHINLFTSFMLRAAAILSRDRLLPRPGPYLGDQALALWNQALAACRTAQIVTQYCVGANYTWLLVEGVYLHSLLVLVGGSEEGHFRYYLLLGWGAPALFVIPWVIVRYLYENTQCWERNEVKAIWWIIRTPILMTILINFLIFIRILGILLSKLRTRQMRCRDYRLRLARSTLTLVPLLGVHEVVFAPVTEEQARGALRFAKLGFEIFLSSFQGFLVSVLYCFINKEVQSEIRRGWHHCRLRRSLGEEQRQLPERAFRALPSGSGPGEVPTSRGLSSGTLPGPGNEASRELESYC
Procedure, shortened: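 HEK293 cells expressing human GIPR, thawed and diluted to 4×10^5 cells/mL, are stimulated with test compound. cAMP is measured by HTRF competition between cAMP-d2 and anti-cAMP cryptate. EC50 comes from a four-parameter nonlinear fit of signal ratio against concentration.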

[6] = 10 nmol/kg s.c. once every 3 days, D7
[7] = 10 nmol/kg s.c. once every 3 days, D10
[8] = 10 nmol/kg s.c. once every 3 days, D13
[9] = 10 nmol/kg s.c. once every 3 days, D16
[10] = 10 nmol/kg s.c. once every 3 days, D19
[11] = 10 nmol/kg s.c. once every 3 days, D22
[12] = 10 nmol/kg s.c. once every 3 days, D25
[13] = 10 nmol/kg s.c. once every 3 days, D28
[14] = after 4 weeks of administration
[15] = after 4 weeks of administration, same dose
[16] = long-term administration 10 nmol/kg, 72 h after the last administration
[17] = long-term administration 10 nmol/kg, blood biochemical index

T1 sequence (P47871 26-477, species assumed): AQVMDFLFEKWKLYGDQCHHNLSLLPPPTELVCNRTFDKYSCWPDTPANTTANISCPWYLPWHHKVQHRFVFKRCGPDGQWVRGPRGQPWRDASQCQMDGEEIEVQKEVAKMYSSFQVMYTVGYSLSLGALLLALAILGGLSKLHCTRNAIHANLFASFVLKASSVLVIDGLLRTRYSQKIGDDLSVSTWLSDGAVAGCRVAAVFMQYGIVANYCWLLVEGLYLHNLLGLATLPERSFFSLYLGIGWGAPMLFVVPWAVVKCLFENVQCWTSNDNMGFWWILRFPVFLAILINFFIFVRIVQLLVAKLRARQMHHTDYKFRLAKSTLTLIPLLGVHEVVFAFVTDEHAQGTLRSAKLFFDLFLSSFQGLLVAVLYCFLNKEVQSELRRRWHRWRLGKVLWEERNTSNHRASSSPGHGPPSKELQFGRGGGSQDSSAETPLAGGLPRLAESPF
T2 sequence (P43220 24-463, species assumed): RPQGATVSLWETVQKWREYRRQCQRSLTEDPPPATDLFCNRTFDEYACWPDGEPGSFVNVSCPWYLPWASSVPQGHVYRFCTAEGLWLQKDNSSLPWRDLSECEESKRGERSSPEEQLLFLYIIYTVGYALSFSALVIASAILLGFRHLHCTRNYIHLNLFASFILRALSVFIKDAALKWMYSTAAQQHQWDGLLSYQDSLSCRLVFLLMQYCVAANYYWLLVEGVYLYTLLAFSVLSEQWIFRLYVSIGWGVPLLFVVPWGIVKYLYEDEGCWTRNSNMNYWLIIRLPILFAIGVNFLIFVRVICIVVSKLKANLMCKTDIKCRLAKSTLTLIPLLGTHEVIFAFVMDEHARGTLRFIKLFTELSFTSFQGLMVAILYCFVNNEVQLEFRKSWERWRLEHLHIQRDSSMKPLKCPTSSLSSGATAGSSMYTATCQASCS

SMILES: CC[C@H](C)[C@H](NC(=O)[C@H](Cc1ccccc1)NC(=O)[C@H](CCC(=O)O)NC(=O)[C@H](CCCNC(=N)N)NC(=O)[C@H](CCC(N)=O)NC(=O)[C@H](CCCNC(=N)N)NC(=O)[C@H](CCCCNC(=O)COCCOCCNC(=O)CC[C@H](NC(=O)CCCCCCCCCCCCCCCCC(=O)O)C(=O)O)NC(=O)[C@H](CCC(=O)O)NC(=O)[C@H](CC(=O)O)NC(=O)[C@H](CC(C)C)NC(=O)[C@H](CC(C)C)NC(=O)[C@@H](NC(=O)[C@H](CO)NC(=O)[C@H](Cc1ccc(O)cc1)NC(=O)[C@H](CC(=O)O)NC(=O)[C@H](CO)NC(=O)[C@@H](NC(=O)[C@](C)(Cc1ccccc1F)NC(=O)[C@@H](NC(=O)CNC(=O)[C@H](Cc1c[nH]cn1)NC(=O)C(C)(C)NC(=O)[C@@H](N)Cc1ccc(O)cc1)[C@@H](C)O)[C@@H](C)O)[C@@H](C)CC)C(=O)N[C@@H](CCC(=O)O)C(=O)N[C@@H](Cc1c[nH]c2ccccc12)C(=O)N[C@@H](CC(C)C)C(=O)N[C@@H](CC(C)C)C(=O)N[C@@H](C)C(=O)NCC(=O)NCC(=O)N1CCC[C@H]1C(=O)N[C@@H](CO)C(=O)N[C@@H](CO)C(=O)NCC(=O)N[C@@H](C)C(=O)N1CCC[C@H]1C(=O)N1CCC[C@H]1C(=O)N1CCC[C@H]1C(=O)N[C@@H](CO)C(=O)O [HEC-PT77]
- EC50 [1]: 0.144 nM
- EC50 [2]: 0.0656 nM
- Cumulative food intake (g/pcs) D7 [3, 6]: 8.7 g/pcs
- Weight gain rate (%) D7 [3, 6]: -14.9±3.8%
- Cumulative food intake (g/pcs) D10 [3, 7]: 11.4 g/pcs
- Weight gain rate (%) D10 [3, 7]: -20.9±4.0%
- Cumulative food intake (g/each) D13 [3, 8]: 14.4 g/each
- Weight gain rate (%) D13 [3, 8]: -24.7±5.5%
- Cumulative food intake (g/each) D16 [3, 9]: 19.1 g/each
- Weight gain rate (%) D16 [3, 9]: -26.6±5.6%
- Cumulative food intake (g/each) D19 [3, 10]: 24.7 g/each
- Weight gain rate (%) D19 [3, 10]: -27.7±5.5%
- Cumulative food intake (g/each) D22 [3, 11]: 30.6 g/each
- Weight gain rate (%) D22 [3, 11]: -28.9±6.4%
- Cumulative food intake (g/each) D25 [3, 12]: 36.7 g/each
- Weight gain rate (%) D25 [3, 12]: -31.2±6.9%
- Cumulative food intake (g/each) D28 [3, 13]: 43.7 g/each
- Weight gain rate (%) D28 [3, 13]: -30.4±5.2%
- Cumulative food intake (g/each) D30 ([3]; 10 nmol/kg s.c. once every 3 days, D30): 47.5^a g/each
- Weight gain rate (%) D31 ([3]; 10 nmol/kg s.c. once every 3 days, D31): -30.2±4.9^a %
- Cumulative food intake (g/pcs) D0 ([3]; 10 nmol/kg s.c., D0): 2.4 g/pcs
- Weight gain rate (%) D0 ([3]; 10 nmol/kg s.c., D0): 0.0±0.0%
- Cumulative food intake (g/pcs) D1 ([3]; 10 nmol/kg s.c., D1): 2.8 g/pcs
- Weight gain rate (%) D1 ([3]; 10 nmol/kg s.c., D1): -5.5±0.7%
- Cumulative food intake (g/pcs) D2 ([3]; 10 nmol/kg s.c., D2): 3.6 g/pcs
- Weight gain rate (%) D2 ([3]; 10 nmol/kg s.c., D2): -7.7±1.9%
- Cumulative food intake (g/pcs) D3 ([3]; 10 nmol/kg s.c., D3): 4.7 g/pcs
- Weight gain rate (%) D3 ([3]; 10 nmol/kg s.c., D3): -8.4±0.9%
- Cumulative food intake (g/pcs) D4 ([3]; 10 nmol/kg s.c., D4): 6.3 g/pcs
- Weight gain rate (%) D4 ([3]; 10 nmol/kg s.c., D4): -7.1±3.5%
- liver function and blood lipids of DIO mice [3, 14]: significantly improved the liver function and blood lipids
- weight loss and food intake inhibition effects compared with Semaglutide [3, 14]: superior to the positive drug Semaglutide
- food intake inhibition effect compared with LY3298176 [3, 15]: comparable to those of the same dose of the positive drug LY3298176
- weight loss effect compared with LY3298176 [3, 15]: comparable to those of the same dose of the positive drug LY3298176
- Liver index/% [3, 16]: 2.7±0.0^a %
- Liver/g [3, 16]: 0.9±0.1^a g
- Weight/g [3, 16]: 31.5±3.2^a g
- ALT (U/L) [3, 17]: 29.1±5.8^a U/L
- AST (U/L) [3, 17]: 112.0±20.9^a U/L
- CHOL (mmol/L) [3, 17]: 3.2±0.5^a mmol/L
- TRIGL (mmol/L) [3, 17]: 0.6±0.1^a mmol/L
- blood glucose after administration ([4]; db/db mice, 10 nmol/kg): significantly reduce blood glucose
- Random blood glucose (mM) D0 ([4]; db/db mice, 10 nmol/kg s.c. once every three days, D0 (before first dose)): 26.6 ± 4.2 mM
- Random blood glucose (mM) D3 ([4]; db/db mice, 10 nmol/kg s.c. once every three days, D3): 15.8 ± 4.0 mM
- Random blood glucose (mM) D4 ([4]; db/db mice, 10 nmol/kg s.c. once every three days, D4): 17.8 ± 5.9 mM
- Random blood glucose (mM) D5 ([4]; db/db mice, 10 nmol/kg s.c. once every three days, D5): 21.5 ± 5.6 mM
- Random blood glucose (mM) D6 ([4]; db/db mice, 10 nmol/kg s.c. once every three days, D6): 24.1 ± 4.6 mM
- Random blood glucose (mM) D7 ([4]; db/db mice, 10 nmol/kg s.c. once every three days, D7): 21.9 ± 3.9 mM
- Random blood glucose (mM) D10 ([4]; db/db mice, 10 nmol/kg s.c. once every three days, D10): 13.4 ± 5.4 mM
- Random blood glucose (mM) D13 ([4]; db/db mice, 10 nmol/kg s.c. once every three days, D13): 15.7 ± 5.4 mM
- Random blood glucose (mM) D16 ([4]; db/db mice, 10 nmol/kg s.c. once every three days, D16): 12.7 ± 6.1 mM
- Random blood glucose (mM) D19 ([4]; db/db mice, 10 nmol/kg s.c. once every three days, D19): 15.5 ± 4.6 mM
- Random blood glucose (mM) D22 ([4]; db/db mice, 10 nmol/kg s.c. once every three days, D22): 15.6 ± 6.1 mM
- Random blood glucose (mM) D25 ([4]; db/db mice, 10 nmol/kg s.c. once every three days, D25): 14.2±5.1^a mM
- Random blood glucose (mM) 6 h ([4]; db/db mice, 10 nmol/kg s.c., 6 h): 15.9 ± 5.9 mM
- Random blood glucose (mM) 24 h ([4]; db/db mice, 10 nmol/kg s.c., 24 h): 8.1 ± 4.5 mM
- Random blood glucose (mM) 48 h ([4]; db/db mice, 10 nmol/kg s.c., 48 h): 11.1 ± 6.2 mM
- time at which blood glucose levels reached the lowest level ([4]; db/db mice, 10 nmol/kg, after administration): about 24 hours
- blood glucose lowering after long-term administration compared with LY3298176 ([4]; db/db mice, long-term repeated administration): not inferior to the positive control LY3298176
- blood glucose reducing effect after administration compared with LY3298176 ([4]; db/db mice, same dose 10 nmol/kg): slightly better than the positive control LY3298176
- blood glucose level after long-term administration ([4]; type II diabetes model db/db mice): significantly improve the blood glucose level
- EC50 [5]: 0.0227 nM
